TGI and GI50 data for ten compounds are collected here from PubChem BioAssay (NCI).

Some test systems named below: HL-60(TB) leukemia; OVCAR-3 ovarian; A549 NSCLC; NCI-H23 lung; UACC-257 melanoma; 786-0 renal; SR leukemia; OVCAR-4 ovarian; SK-OV-3 ovarian; NCI-H226 lung; A498 renal; MCF7 breast; K-562 leukemia; UO-31 renal.
Assay in all cases: inhibition of tumour cell growth, NCI panel, 48 h

Structures are written as SMILES. Several values for one entry are separate records, joined by “and”; a condition that tells them apart may be missing. Identical values can stand only once.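 Growth conditions: 96-well plates. Treatment: test compound, 48 hours, 5 concentrations. Analysis: linear interpolation between bracketing concentrations; unreached endpoints set to highest concentration. GI50 = concentration required for 50% inhibition of growth. TGI is the concentration that stops growth completely.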 A value given as a limit tells only on which side of the number the result lay.

Regarding `COC(=O)c1cc2c(c3c1CC(Cc1ccccc1)C3=O)CCC2` (stereo unspecified), the TGI with HL-60(TB) leukemia, in the test on OVCAR-3 ovarian, with A549 NSCLC, in the test with NCI-H23 lung, in the test with UACC-257 melanoma and with 786-0 renal was over 100 µM in each case. Further, the TGI with SR leukemia, in the test with OVCAR-4 ovarian, in the test on SK-OV-3 ovarian, with NCI-H226 lung, in the test on A498 renal and in the test on MCF7 breast was over 100 µM throughout. The compound further yielded a TGI with K-562 leukemia of over 100 µM.
Consider `COC(=O)[C@@]1(C(C)CC(=O)O)CCCCC1=O` (stereo partly specified), for which the TGI with HL-60(TB) leukemia, with OVCAR-3 ovarian, in the test on A549 NSCLC, with NCI-H23 lung, in the test with UACC-257 melanoma and in the test on 786-0 renal was over 100 µM throughout. Besides, the TGI with SR leukemia, with OVCAR-4 ovarian, in the test on SK-OV-3 ovarian, with NCI-H226 lung, with A498 renal and with UO-31 renal was over 100 µM in each case. This compound returned a TGI in the test on K-562 leukemia of over 100 µM.
On to `O=[N+]([O-])c1ccc(OC2CC3C4C=CC3C2C4)c([N+](=O)[O-])c1` (stereo unspecified), for which the GI50 in the test on HL-60(TB) leukemia is 69.7 µM; in the test on NCI-H23 lung, > 100 µM and 26.8 µM; in the test with SK-OV-3 ovarian, 68.5 µM and > 31.6 µM; with A498 renal, 96.5 µM and > 31.6 µM; in the test with UO-31 renal, over 100 µM. Also, the TGI in the test with HL-60(TB) leukemia, with OVCAR-3 ovarian, with A549 NSCLC, in the test on NCI-H23 lung, in the test on UACC-257 melanoma and in the test with 786-0 renal was over 100 µM throughout. For the same compound, the TGI in the test on OVCAR-4 ovarian was 76.3 µM and > 31.6 µM; in the test on SK-OV-3 ovarian, over 100 µM; with NCI-H226 lung, over 100 µM; in the test on A498 renal, over 100 µM; in the test on UO-31 renal, over 100 µM; with MCF7 breast, over 100 µM. Also, the TGI in the test on K-562 leukemia was over 100 µM.
With `COc1ccc(/C(Br)=C2\OC(=O)c3ccccc32)cc1`, the TGI with HL-60(TB) leukemia, with OVCAR-3 ovarian, in the test with A549 NSCLC, with NCI-H23 lung, in the test with UACC-257 melanoma and with 786-0 renal was over 10 µM throughout. The TGI in the test on SR leukemia, in the test on OVCAR-4 ovarian, in the test on SK-OV-3 ovarian, in the test on NCI-H226 lung, with UO-31 renal and with MCF7 breast was over 10 µM each time. In the test on K-562 leukemia, this compound returned a TGI of over 10 µM.
For `O=C(CCC1C(=O)NC(=S)NC1=O)c1ccc2ccccc2c1`, the TGI in the test on HL-60(TB) leukemia, in the test on OVCAR-3 ovarian, with A549 NSCLC, with NCI-H23 lung, with UACC-257 melanoma and with 786-0 renal was over 100 µM each time. The TGI in the test with SR leukemia, in the test on OVCAR-4 ovarian, in the test on SK-OV-3 ovarian, in the test on NCI-H226 lung, with A498 renal and in the test on UO-31 renal was over 100 µM each time. In the test on K-562 leukemia, this compound showed a TGI of over 100 µM.
As for `CCN(CC)c1ccc2c(c1)Oc1ccc(N(CC)CC)cc1C21Oc2ccccc2-c2c1c1ccccc1n2CC` (stereo unspecified), the TGI in the test on HL-60(TB) leukemia is 11 µM; with OVCAR-3 ovarian it was over 100 µM; with A549 NSCLC it was over 100 µM; in the test on NCI-H23 lung, 8.01 µM; in the test on UACC-257 melanoma, over 100 µM; with 786-0 renal, over 100 µM. Moreover, the TGI in the test on SR leukemia is over 100 µM; with OVCAR-4 ovarian, over 100 µM; in the test on SK-OV-3 ovarian it was over 100 µM; in the test with NCI-H226 lung it was over 100 µM; with A498 renal, over 100 µM; with UO-31 renal it was 63.2 µM. In the test with K-562 leukemia, this compound showed a TGI of over 100 µM.
For `C[C@]12C[C@@H](OC(=O)[C@]1(C)O)[C@@H]([C@]1(O)CC[C@H]3[C@@H]4C[C@H]5O[C@]56C[C@H]5O[C@H]5C(=O)[C@]6(C)[C@H]4CC[C@@]31C)C2`, the TGI with HL-60(TB) leukemia, with A549 NSCLC, in the test with NCI-H23 lung, with UACC-257 melanoma, in the test with 786-0 renal and in the test with SR leukemia was over 50 µM each time. For the same compound, the TGI in the test on OVCAR-4 ovarian, with SK-OV-3 ovarian, with NCI-H226 lung, in the test with A498 renal, in the test on UO-31 renal and in the test with MCF7 breast was over 50 µM in each case. For the same compound, the TGI in the test with K-562 leukemia is over 50 µM.
As for `Oc1[nH]c2ccccc2c1N=NC(=S)Nc1ccccc1Cl`, the TGI in the test on HL-60(TB) leukemia stood at 18.7 µM; in the test with OVCAR-3 ovarian, 37.6 µM; in the test on A549 NSCLC, 23.8 µM; in the test on NCI-H23 lung, 33.5 µM; with UACC-257 melanoma, 15.5 µM; in the test with 786-0 renal, 20.8 µM. Further, the TGI was found to be 1.16 µM in the test on SR leukemia; 63.7 µM in the test with OVCAR-4 ovarian; 35.5 µM in the test on SK-OV-3 ovarian; 53 µM with NCI-H226 lung; 35.4 µM with A498 renal; 81.6 µM with UO-31 renal. Further, the TGI stood at 33.4 µM in the test on MCF7 breast and 81.4 µM with K-562 leukemia.
Regarding `CSC(=S)Nc1cccc(C)n1`, the TGI in the test on HL-60(TB) leukemia, with OVCAR-3 ovarian, in the test on A549 NSCLC, with NCI-H23 lung, in the test with UACC-257 melanoma and in the test with 786-0 renal was over 100 µM in each case. Moreover, the TGI in the test on SR leukemia, with OVCAR-4 ovarian, with SK-OV-3 ovarian, in the test on NCI-H226 lung, in the test on A498 renal and in the test with UO-31 renal was over 100 µM throughout. Further, the TGI in the test with MCF7 breast and with K-562 leukemia was over 100 µM in each case.
Regarding `CCOP1(=O)C=C(C)C(Cl)=C(C)C1` (stereo unspecified), the TGI with HL-60(TB) leukemia was 53.9 µM; with OVCAR-3 ovarian it was over 100 µM; in the test with A549 NSCLC it was 65 µM; with NCI-H23 lung it was 46.2 µM; with UACC-257 melanoma, 88.7 µM; in the test on 786-0 renal it was 83 µM. The TGI in the test with SR leukemia was over 100 µM; in the test on OVCAR-4 ovarian it was 90.9 µM; in the test with SK-OV-3 ovarian, over 100 µM; with NCI-H226 lung, 59.9 µM; in the test with UO-31 renal it was over 100 µM; in the test on K-562 leukemia, 90.5 µM.
